Measured values taken from ChEMBL document CHEMBL1201862, “PubChem BioAssay data set” (2004).
Activity calls are given as the source filed them.

What was measured:
[1] = molecular target: T1, Polyadenylate-binding protein 1 (Homo sapiens, UniProt P11940); assay: PABP1 MLLE–PAM2 interaction inhibitors, dose response, miRNA deadenylation inhibitor project, biochemical, fluorescence polarization, Cy5-PAM2 peptide, secondary (AID 602260); assay type: functional; conditions: read-out: IC50_Mean
[2] = molecular target: T1, Polyadenylate-binding protein 1; assay: PABP1 MLLE–PAM2 binding inhibitor potency, dose response, biochemical, fluorescence polarization, FITC-PAM2 peptide (AID 602259); assay type: functional; conditions: read-out: IC50_Mean
[3] = molecular target: T2, Leucine aminopeptidase (Plasmodium falciparum 3D7, UniProt Q8IL11); assay: P. falciparum M17LAP inhibitors, primary screen, biochemical, fluorogenic H-Leu-NHMec substrate, 1536-well (AID 1619); assay type: functional
T2 sequence (Q8IL11 whole entry): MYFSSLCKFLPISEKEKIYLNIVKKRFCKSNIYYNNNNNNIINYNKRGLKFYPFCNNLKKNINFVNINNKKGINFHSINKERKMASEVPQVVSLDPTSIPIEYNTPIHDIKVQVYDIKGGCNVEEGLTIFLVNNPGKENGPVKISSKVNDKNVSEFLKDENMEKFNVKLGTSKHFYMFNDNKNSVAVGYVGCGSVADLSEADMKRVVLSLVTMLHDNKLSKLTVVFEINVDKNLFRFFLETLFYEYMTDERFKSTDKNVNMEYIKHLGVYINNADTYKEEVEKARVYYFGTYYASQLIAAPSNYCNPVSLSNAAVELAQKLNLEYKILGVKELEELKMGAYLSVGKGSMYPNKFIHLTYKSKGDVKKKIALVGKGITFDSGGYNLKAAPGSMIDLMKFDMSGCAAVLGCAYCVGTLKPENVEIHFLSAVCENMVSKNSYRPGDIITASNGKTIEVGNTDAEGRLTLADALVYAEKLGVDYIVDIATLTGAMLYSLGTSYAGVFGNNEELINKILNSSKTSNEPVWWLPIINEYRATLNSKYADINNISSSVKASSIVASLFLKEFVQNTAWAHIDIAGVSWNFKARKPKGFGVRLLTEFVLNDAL

[4] = tested on: H9c2; assay: cells; assay type: functional, cell-based; conditions: Rattus norvegicus, H9c2, Myocardium;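 also: confirmatory concentration-response retest of ultra-high-throughput screening hits for modulation of myocardial damage; cell death induced by hydrogen peroxide oxidative stress; compound pretreatment for 60 min then peroxide exposure for 2 h; potency is for protecting the cells against peroxide damage rather than for killing them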
[5] = molecular target: Glucose-6-phosphate 1-dehydrogenase (Homo sapiens, UniProt P11413); assay: human G6PD enzyme inhibitors, dose response, selectivity assay for P. falciparum G6PD inhibitor project, biochemical, fluorescence (AID 504792); assay type: functional
Glucose-6-phosphate 1-dehydrogenase, sequence (P11413 whole entry): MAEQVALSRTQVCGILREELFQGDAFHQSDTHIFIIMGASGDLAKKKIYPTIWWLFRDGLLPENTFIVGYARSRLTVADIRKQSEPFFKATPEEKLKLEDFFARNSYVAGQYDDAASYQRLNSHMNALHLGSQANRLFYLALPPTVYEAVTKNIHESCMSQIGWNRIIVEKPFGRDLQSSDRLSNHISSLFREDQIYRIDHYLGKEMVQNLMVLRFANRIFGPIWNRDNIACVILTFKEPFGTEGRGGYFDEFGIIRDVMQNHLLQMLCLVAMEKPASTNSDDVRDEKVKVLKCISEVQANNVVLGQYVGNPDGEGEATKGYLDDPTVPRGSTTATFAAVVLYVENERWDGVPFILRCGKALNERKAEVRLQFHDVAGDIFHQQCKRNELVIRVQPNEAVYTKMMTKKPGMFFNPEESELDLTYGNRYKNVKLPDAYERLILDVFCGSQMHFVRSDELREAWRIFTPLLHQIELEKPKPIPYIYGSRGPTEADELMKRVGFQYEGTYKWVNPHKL

[6] = molecular target: FAD-linked sulfhydryl oxidase ALR (Homo sapiens, UniProt P55789); assay: inhibitors of human ALR sulfhydryl oxidase, dose response, biochemical, H2O2 detection, luminescence, cherry-pick (AID 493248)
FAD-linked sulfhydryl oxidase ALR, sequence (P55789 whole entry): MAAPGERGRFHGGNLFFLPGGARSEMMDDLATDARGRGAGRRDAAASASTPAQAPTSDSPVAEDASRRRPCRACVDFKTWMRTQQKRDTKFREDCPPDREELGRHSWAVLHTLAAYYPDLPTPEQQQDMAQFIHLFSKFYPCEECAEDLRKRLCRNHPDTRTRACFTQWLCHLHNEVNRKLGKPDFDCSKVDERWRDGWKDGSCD

[7] = growth suppression of beta-catenin-knockout colon cells, dose response, cell-based, HCT116, human colon tumor (AID 1045); assay type: functional;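 also: HCT116 colon tumor cells with beta catenin knocked out; cells exposed to compound for 60 hours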
[8] = growth suppression of PTEN-null colon cells, dose response, cell-based, HCT116 PTEN knockout (AID 1047); assay type: functional;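 also: HCT116 colon tumor cells with PTEN knocked out; cells exposed to compound for 60 hours before readout; potency for loss of cell viability measured by luminescence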
[9] = molecular target: T3, Heat shock factor protein 1 (Mus musculus, UniProt P38532); assay: inhibition of MG132-induced HSE-luciferase signal, confirmation, cell-based, NIH3T3, luminescence, dose retest (AID 2382); assay type: functional;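 also: NIH3T3 fibroblasts with HSF1-driven luciferase reporter stressed by proteasome inhibitor MG132; luminescence from HSF1-driven luciferase expression after 8 hours of MG132 stress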
T3 sequence (P38532 whole entry): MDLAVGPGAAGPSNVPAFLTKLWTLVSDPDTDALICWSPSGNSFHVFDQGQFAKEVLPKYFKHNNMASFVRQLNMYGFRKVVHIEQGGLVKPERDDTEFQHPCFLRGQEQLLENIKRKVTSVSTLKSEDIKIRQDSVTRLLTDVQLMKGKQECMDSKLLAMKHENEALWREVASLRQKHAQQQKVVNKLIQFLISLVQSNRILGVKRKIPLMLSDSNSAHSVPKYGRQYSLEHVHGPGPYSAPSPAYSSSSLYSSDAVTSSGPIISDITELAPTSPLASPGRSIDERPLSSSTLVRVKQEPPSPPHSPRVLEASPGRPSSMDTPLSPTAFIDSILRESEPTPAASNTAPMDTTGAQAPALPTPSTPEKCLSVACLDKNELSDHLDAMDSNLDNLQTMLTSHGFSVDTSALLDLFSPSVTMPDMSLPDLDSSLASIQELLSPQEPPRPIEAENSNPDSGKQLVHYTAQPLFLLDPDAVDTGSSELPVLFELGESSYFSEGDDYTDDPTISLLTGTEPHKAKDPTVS

[10] = molecular target: Large T antigen (Simian virus 40, UniProt P03070); assay type: functional, Betapolyomavirus macacae;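 also: Confirmatory-stage PubChem screen for compounds that inhibit SV40 T antigen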
Large T antigen, sequence (P03070 whole entry): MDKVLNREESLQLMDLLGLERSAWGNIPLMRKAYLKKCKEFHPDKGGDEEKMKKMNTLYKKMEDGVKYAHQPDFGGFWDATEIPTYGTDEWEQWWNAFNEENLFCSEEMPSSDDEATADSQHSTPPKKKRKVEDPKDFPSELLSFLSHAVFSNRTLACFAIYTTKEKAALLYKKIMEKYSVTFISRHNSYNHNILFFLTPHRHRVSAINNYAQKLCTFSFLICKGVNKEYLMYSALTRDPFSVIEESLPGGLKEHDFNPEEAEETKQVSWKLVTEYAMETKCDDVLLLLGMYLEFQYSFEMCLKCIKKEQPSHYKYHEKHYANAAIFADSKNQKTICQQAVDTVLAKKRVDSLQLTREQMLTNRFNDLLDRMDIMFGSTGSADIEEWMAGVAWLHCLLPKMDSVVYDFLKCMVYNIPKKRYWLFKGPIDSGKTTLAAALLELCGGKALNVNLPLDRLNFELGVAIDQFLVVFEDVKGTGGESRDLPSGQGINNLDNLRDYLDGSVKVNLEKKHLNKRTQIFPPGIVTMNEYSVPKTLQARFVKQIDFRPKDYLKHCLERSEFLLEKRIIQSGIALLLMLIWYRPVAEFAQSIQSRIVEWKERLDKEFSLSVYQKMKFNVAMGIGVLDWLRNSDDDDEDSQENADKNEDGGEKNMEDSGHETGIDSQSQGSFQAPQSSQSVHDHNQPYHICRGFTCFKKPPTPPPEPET

[11] = molecular target: T3, Heat shock factor protein 1; assay: HSF1 potentiators in luciferase reporter cells, confirmation, cell-based, NIH3T3, luminescence, dose retest (AID 435004); assay type: functional;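 also: stress induced by proteasome inhibitor MG132 added 30 min after compound; luciferase reporter driven by HSF1 response element in NIH3T3 cells; actives raise luminescence as potentiators of the MG132 stress response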
[12] = molecular target: Cytochrome P450 2C19 (Homo sapiens, UniProt P33261); assay: Cytochrome panel assay with activity outcomes. Panel member name: p450-cyp2c19 Compounds with AC50 equal or less than 10 uM are considered active; assay type: functional; conditions: read-out: AC50
Cytochrome P450 2C19, sequence (P33261 whole entry): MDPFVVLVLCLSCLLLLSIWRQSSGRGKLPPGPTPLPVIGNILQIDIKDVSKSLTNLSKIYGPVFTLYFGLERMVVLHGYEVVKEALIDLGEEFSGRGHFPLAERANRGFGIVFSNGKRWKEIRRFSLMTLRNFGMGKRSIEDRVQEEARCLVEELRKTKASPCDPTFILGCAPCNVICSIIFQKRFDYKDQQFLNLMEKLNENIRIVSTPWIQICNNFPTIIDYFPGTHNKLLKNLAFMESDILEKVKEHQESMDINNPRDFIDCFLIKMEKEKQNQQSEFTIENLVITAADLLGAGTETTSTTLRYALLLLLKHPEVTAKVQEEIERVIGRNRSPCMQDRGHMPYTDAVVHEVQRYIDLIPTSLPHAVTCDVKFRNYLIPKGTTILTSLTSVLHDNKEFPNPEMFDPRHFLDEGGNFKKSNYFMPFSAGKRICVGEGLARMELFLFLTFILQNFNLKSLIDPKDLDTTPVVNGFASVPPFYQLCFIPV

[13] = molecular target: T4, Aminopeptidase N (Plasmodium falciparum FcB1/Columbia, UniProt O96935); assay: P. falciparum M1AAP inhibitors, biochemical, fluorogenic H-Leu-NHMec substrate, 1536-well (AID 1445); design: species or system Plasmodium falciparum 3D7, 3D7
T4 sequence (O96935 whole entry): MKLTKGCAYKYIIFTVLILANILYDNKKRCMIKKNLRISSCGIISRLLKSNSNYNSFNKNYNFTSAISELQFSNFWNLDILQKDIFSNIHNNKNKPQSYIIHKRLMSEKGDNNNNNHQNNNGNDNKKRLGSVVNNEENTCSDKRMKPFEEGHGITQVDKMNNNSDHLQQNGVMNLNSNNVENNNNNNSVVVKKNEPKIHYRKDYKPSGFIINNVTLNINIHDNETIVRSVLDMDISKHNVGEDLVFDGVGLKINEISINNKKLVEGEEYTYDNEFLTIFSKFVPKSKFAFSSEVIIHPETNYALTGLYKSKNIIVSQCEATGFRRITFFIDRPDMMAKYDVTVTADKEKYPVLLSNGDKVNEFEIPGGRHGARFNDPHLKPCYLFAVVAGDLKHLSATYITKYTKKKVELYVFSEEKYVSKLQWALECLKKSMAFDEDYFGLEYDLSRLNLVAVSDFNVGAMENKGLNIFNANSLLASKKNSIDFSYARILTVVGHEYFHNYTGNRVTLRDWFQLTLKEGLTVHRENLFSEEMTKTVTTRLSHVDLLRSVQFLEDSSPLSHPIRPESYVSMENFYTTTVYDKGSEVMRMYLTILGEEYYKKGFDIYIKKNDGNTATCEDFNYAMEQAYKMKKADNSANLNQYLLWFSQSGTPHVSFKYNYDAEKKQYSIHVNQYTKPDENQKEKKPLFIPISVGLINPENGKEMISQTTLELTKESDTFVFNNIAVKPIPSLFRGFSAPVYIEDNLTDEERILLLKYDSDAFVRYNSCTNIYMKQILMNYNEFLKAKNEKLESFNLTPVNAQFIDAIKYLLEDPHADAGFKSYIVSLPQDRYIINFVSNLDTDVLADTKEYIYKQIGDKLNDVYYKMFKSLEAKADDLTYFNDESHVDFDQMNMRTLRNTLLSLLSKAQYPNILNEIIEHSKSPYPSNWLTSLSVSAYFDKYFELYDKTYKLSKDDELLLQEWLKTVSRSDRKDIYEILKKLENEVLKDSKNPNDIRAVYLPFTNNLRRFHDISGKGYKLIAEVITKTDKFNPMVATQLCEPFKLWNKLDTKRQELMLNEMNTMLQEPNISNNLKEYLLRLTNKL

[14] = tested on: Streptococcus; assay: Group A Streptococcus viability loss, dose response, counter-screen for streptokinase expression inhibitor project, luminescence, BacTiterGlo (AID 1915); assay type: functional, organism-based;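 also: potency for reduction of bacterial viability or growth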
[15] = tested on: Streptococcus sp. 'group A'; assay: growth inhibition of control SK(-) GAS strain, dose response, counter-screen for streptokinase expression inhibitor project, luminescence, kanamycin, BacTiterGlo, confirmation (AID 1900); assay type: functional, organism-based
[16] = molecular target: Cytochrome P450 2D6 (Homo sapiens, UniProt P10635);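 also: CYP2D6 member of a cytochrome P450 panel assay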
Cytochrome P450 2D6, sequence (P10635 whole entry): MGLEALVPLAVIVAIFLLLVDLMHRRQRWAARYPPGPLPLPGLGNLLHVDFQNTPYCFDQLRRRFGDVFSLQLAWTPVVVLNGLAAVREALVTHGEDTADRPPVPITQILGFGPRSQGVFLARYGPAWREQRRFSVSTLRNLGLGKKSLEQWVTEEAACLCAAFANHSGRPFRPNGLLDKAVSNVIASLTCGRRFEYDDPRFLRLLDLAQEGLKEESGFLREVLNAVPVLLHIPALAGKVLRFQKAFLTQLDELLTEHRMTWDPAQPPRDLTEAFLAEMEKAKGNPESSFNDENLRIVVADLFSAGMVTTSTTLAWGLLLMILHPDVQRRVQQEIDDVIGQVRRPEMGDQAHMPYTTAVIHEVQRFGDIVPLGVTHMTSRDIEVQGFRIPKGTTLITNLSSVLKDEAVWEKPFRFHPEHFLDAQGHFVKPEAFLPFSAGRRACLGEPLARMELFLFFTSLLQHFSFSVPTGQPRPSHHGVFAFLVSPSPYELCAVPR

T1 sequence (P11940 whole entry): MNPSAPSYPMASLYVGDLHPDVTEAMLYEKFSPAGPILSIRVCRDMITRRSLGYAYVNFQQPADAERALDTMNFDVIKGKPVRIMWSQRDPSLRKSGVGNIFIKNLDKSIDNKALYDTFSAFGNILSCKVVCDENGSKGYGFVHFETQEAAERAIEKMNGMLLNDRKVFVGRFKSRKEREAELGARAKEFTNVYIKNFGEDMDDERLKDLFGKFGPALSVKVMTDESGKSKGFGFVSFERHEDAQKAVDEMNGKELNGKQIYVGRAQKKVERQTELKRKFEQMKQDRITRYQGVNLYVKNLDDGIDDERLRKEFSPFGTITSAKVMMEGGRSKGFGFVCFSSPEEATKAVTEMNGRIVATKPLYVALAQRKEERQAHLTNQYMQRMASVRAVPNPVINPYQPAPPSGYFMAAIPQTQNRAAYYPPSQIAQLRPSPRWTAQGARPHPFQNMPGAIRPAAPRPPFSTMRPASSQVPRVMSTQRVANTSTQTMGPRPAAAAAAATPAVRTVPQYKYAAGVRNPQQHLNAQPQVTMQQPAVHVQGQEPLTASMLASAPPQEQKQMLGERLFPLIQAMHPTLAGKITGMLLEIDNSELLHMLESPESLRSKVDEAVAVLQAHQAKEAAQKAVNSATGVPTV

CC(Sc1ccc2c(c1)OCCO2)C(=O)Nc1ncc(Cl)cc1Cl (stereo not given)
IC50 [1]: > 66 µM (inactive)
IC50 [2]: > 66 µM (inactive)
IC50 [3]: 3.8 µM (active)

COc1ccc(-c2cc(=O)c3ccccc3[nH]2)cc1
IC50 [4]: > 79 µM (inactive)

Nc1nc(SCc2nc(-c3ccccc3)no2)[nH]c(=O)c1-c1ccccc1
IC50 [3]: 7.2 µM (active)

COc1ccc(N2C(=O)/C(=C/c3cccs3)NC2=S)cc1
IC50 [5]: > 80 µM (inactive)

CCN(CC)CCC(c1ccc(N(C)C)cc1)c1c(OC)cc(OC)c2ccc(=O)oc12 (stereo not given)
AC50 [6]: 3.28 µM (active)

COc1ccc(/C=C/C(=O)c2ccc(NC(=O)c3cccs3)cc2)cc1OC
EC50 [7]: 3.01 µM (active)
EC50 [8]: 3.5 µM (active)

O=C(Nc1nnc(S(=O)(=O)N2CCOCC2)s1)c1cccc(Br)c1
IC50 [5]: > 80 µM (inactive)

CCOC(=O)Cc1csc(NC(=O)NC2(C(F)(F)F)Oc3cc(Cl)c(Cl)cc3O2)n1
EC50 [9]: > 195 µM (not active)
IC50 [3]: 27.7 µM (active)

COc1cc(SC)ccc1C(=O)Nc1c(Cl)cncc1Cl
AC50 [6]: 0.867 µM (active)

CCOC(=O)c1nc(Nc2ccc(C(C)=O)cc2)c2ccccc2n1
IC50 [4]: 8.56 µM (active)

CC1SC(C)C(=O)N(CC(=O)NCc2ccc(F)cc2)C1=O (stereo not given)
IC50 [3]: 31.4 µM (active)

C=CCn1c(S)nnc1-c1cccc(OC)c1
AC50 [6]: 7.27 µM (active)

CS(=O)(=O)N1CCc2cc(C(=O)Nc3ccc(O)cc3)ccc21
AC50 [6]: 3.92 µM (active)
IC50 [10]: > 100 µM (active)

COc1ccc(C(=O)Nc2sc3c(c2C(=O)O)CC(C)(C)OC3)cc1
IC50 [5]: > 80 µM (inactive)

Cc1ccc(C(=O)Nc2ccc(Oc3ccc(C(=O)O)c(C(=O)O)c3)cc2)cc1C
IC50 [3]: 13.2 µM (active)

COc1ccc2c(c1)O[C@H](c1ccc3c(c1)OCO3)[C@@H](OC(=O)N[C@H](C)C1CCCCC1)C2=O
EC50 [7]: 10.4 µM (active)
EC50 [8]: 11.6 µM (active)

Cc1csc(SC(C)C(=O)Nc2ccc(Cl)cn2)n1 (stereo not given)
IC50 [3]: 6.63 µM (active)

CCCS(=O)(=O)N1CCCC(C(=O)NCCN(CC)c2ccccc2)C1 (stereo not given)
AC50 [6]: 0.33 µM (active)

NC(=O)c1nsc(C(=O)N(Cc2ccco2)C(C(=O)NCc2ccccc2)c2ccc(O)cc2)c1N (stereo not given)
IC50 [4]: > 79 µM (inactive)

CCOC(=O)c1c(C)[nH]c(C)c1C(=O)COc1ncnc2cc([N+](=O)[O-])ccc12
IC50 [4]: 26.4 µM (active)
EC50 [11]: > 260 µM (inactive)

CC(C)n1cnc2cc(NCc3ccccc3O)ccc21
AC50 [6]: 1.44 µM (active)

CC(OC(=O)CCc1nc(O)c2ccccc2n1)C(=O)NCc1ccc2c(c1)OCO2 (stereo not given)
IC50 [4]: > 79 µM (inactive)

Cc1ccc(NC(=O)Nc2cccs2)cc1
AC50 [6]: 6.23 µM (active)

Cn1c(C(=O)O)c(CC(=O)NCC2COc3ccccc3O2)c2ccccc21 (stereo not given)
IC50 [3]: 15.7 µM (active)
AC50 [12]: 25.1 µM (inconclusive)

CC(=O)Nc1ccc(NS(=O)(=O)c2cc(-c3nnc(O)c4ccccc34)ccc2C)cc1
IC50 [4]: > 79 µM (inactive)

NS(=O)(=O)c1ccc(CCNc2ccn3nc(-c4ccc(OCCN5CCOCC5)cc4)cc3n2)cc1
IC50 [4]: > 79 µM (inactive)

Oc1c(Br)cc(Cl)cc1/C=N/c1ccccc1Br
IC50 [4]: > 79 µM (inactive)

Nc1nonc1-c1nc2ccccc2n1CC(=O)N/N=C/c1ccc(-c2cccc(C(=O)O)c2)o1
IC50 [13]: 12.5 µM (active)
EC50 [14]: 4.63 µM (active)
EC50 [15]: 4.28 µM (active)

Cc1ccc([N+](=O)[O-])cc1/N=N/c1c(C)[nH]n(C(N)=S)c1=O
AC50 [6]: 5.04 µM (active)

Cc1ccsc1/C=N/NC(=O)c1cccc(S(=O)(=O)Nc2ccccc2Cl)c1
IC50 [5]: > 80 µM (inactive)

Cn1c(=O)c2c(nc(N/N=C/c3ccc(OC(=O)c4ccco4)cc3)n2Cc2ccccc2Cl)n(C)c1=O
EC50 [7]: 14.6 µM (active)
EC50 [8]: 13.4 µM (active)

COc1ccc(/C=N/NC(=O)CCCOc2ccc(Cl)cc2Cl)cc1[N+](=O)[O-]
EC50 [7]: 59.7 µM (active)
EC50 [8]: 281 µM (active)
AC50 [16]: 10 µM (inconclusive)
